Source: patent US20140135220A1, “Methods for post emergent weed control with Pyroxasulfone and Lactofen” (Valent U.S.A., Corporation, priority 2012, published 2014)

Tests used:
Palmer Amaranth [1] = test: Example 1: post emergence treatments on field plots with Palmer Amaranth; format: in vivo; conditions: COC 1% v/v
Source text: In order to determine the efficacy of combinations of pyroxasulfone and lactofen, numerous treatments were applied to plots in an area with abundant Palmer Amaranth growth. Treatments were applied to Palmer that were between 1 and 2 inches tall with a water volume of 20 gallons per acre applied at 35 PSI with a ground speed of 3 MPH. Treatments were repeated 10 days after the first application on another set of plots with Palmer 3 to 12 inches tall with a water volume of 20 gallons per acre applied at 35 PSI with a ground speed of 3 MPH.
The number of living Palmer Amaranth plants was evaluated at 7, 18, 24, and 38 days following the first treatment and 8, 14, and 28 days following the second treatment. Effect of Pyroxasulfone and Lactofen Treatments on Palmer Amaranth.”

weeds = conditions: as a post emergence treatment, applied alone; previous studies; cited from earlier work
Palmer Amaranth [2] = test: Example 2: post emergence treatments on soybean plots, control of Palmer Amaranth; format: in vivo; design: scale not given here
Source text: (§1) In order to determine the efficacy of combinations of pyroxasulfone and lactofen, numerous treatments were applied to plots in an area with abundant Palmer Amaranth and Ivyleaf Morning Glory growth. Soybeans were planted approximately 22 days before treatment. Treatments were applied with a backpack sprayer with a size 6 nozzle at a pace of 3 miles per hour during dry conditions. Each treatment was done in triplicate. Treatments were applied with a water volume of 20 gallons per acre applied at 40 PSI with a ground speed of 3 MPH. At the time of treatment, Palmer Amaranth plants were approximately 2 to 6 inches tall, and Ivyleaf Morning Glory was approximately 3 to 6 inches tall. Effect of Pyroxasulfone and Lactofen Treatments on Palmer Amaranth” and “Table 3. Effect of Pyroxasulfone and Lactofen Treatments on Ivyleaf Morning Glory.”

Ivyleaf Morning Glory = test: Example 2: post emergence treatments on soybean plots, control of Ivyleaf Morning Glory; format: in vivo; design: scale not given here
Source text: as §1

Soybeans = test: Example 2: phytotoxicity of the treatments on soybeans; conditions: soybean, in vivo, 28 days after treatment
Source text: as §1
Applicants also evaluated the phototoxicity of the treatments on soybeans. […] Effect of Pyroxasulfone and Lactofen Treatments on Soybeans,” there were no phytotoxic effects 28 days following treatments.

[3] = plot 2, Pyroxasulfone 0.213 lb ai/a

## Cn1nc(C(F)(F)F)c(CS(=O)(=O)C2=NOC(C)(C)C2)c1OC(F)F [Pyroxasulfone, 5-(difluoromethoxy)-1-methyl-3-(trifluoromethyl)pyrazol-4-ylmethyl 4,5-dihydro-5,5-dimethyl-1,2-oxazol-3-yl sulfone]
Palmer Amaranth [1]; [3]
  Palmer Amaranth (% Control) 7 DAT: 66.9%
  Palmer Amaranth (% Control) 8/18 DAT: 85.0%
  Palmer Amaranth (% Control) 14/24 DAT: 45.0%
  Palmer Amaranth (% Control) 28/38 DAT: 61.7%
weeds
  post emergence activity: poor activity

## CCOC(=O)C(C)OC(=O)c1cc(Oc2ccc(C(F)(F)F)cc2Cl)ccc1[N+](=O)[O-] (racemic) [Lactofen, ethyl O-[5-(2-chloro-α,α,α-trifluoro-p-tolyloxy)-2-nitrobenzoyl]-DL-lactate]
Palmer Amaranth [1]; plot 3, Lactofen 12.5 fl oz/a
  Palmer Amaranth (% Control) 7 DAT: 66.0%
  Palmer Amaranth (% Control) 8/18 DAT: 97.7%
  Palmer Amaranth (% Control) 14/24 DAT: 97.7%
  Palmer Amaranth (% Control) 28/38 DAT: 99.0%
Palmer Amaranth [2]; plot 8, Lactofen 8 fl oz/a
  Effect on Palmer Amaranth 6 DAT: 86.7
  Effect on Palmer Amaranth 14 DAT: 65.0
  Effect on Palmer Amaranth 28 DAT: 46.7
Palmer Amaranth [2]; plot 9, Lactofen 10.0 fl oz/a
  Effect on Palmer Amaranth 6 DAT: 84.7
  Effect on Palmer Amaranth 14 DAT: 68.3
  Effect on Palmer Amaranth 28 DAT: 46.7
Palmer Amaranth [2]; plot 10, Lactofen 12.5 fl oz/a
  Effect on Palmer Amaranth 6 DAT: 85.0
  Effect on Palmer Amaranth 14 DAT: 71.7
  Effect on Palmer Amaranth 28 DAT: 43.3
Ivyleaf Morning Glory; plot 8, Lactofen 8 fl oz/a
  Effect on Ivyleaf Morning Glory 6 DAT: 61.7
  Effect on Ivyleaf Morning Glory 14 DAT: 48.3
  Effect on Ivyleaf Morning Glory 28 DAT: 20.0
Ivyleaf Morning Glory; plot 9, Lactofen 10.0 fl oz/a
  Effect on Ivyleaf Morning Glory 6 DAT: 71.7
  Effect on Ivyleaf Morning Glory 14 DAT: 58.3
  Effect on Ivyleaf Morning Glory 28 DAT: 20.0
Ivyleaf Morning Glory; plot 10, Lactofen 12.5 fl oz/a
  Effect on Ivyleaf Morning Glory 6 DAT: 68.3
  Effect on Ivyleaf Morning Glory 14 DAT: 56.7
  Effect on Ivyleaf Morning Glory 28 DAT: 23.3
Soybeans
  Effect on Soybeans (phytotoxicity) 28 DAT: 0.0
